These results are taken from article PMC3758303 (PLoS ONE, 2013).

Data set [1] can be described thus: WST-1 cell proliferation assay, ORL8 cells. The data set is classed as cell-based. As to conditions: human. The protocol:
(§1) The WST-1 cell proliferation assay was performed as described previously. Briefly, The cells were plated onto 96-well plates (1×10^3 cells per well) in triplicate and then treated with each reagent at several concentrations for 72 hrs. After treatment, the cells were subjected to the WST-1 cell proliferation assay (Takara Bio, Otsu, Japan) according to the manufacturer’s protocol. This assay is based on the enzymatic cleavage of the tetrazolium salt WST-1 to formazan by cellular mitochondrial dehydrogenases present in viable cells. Therefore, there are […] the value of the WST-1 assay becomes zero. The experiments were performed at least in triplicate. From the assay results, the 50% cytotoxic concentration (CC50) of each reagent was determined.
In general terms: Tetrazolium dyes change colour on reduction, which living cells bring about.

For data set [2], the system named is genome-length HCV-RNA (O strain of genotype 1b) replication in Li23-derived ORL11 cells. In words: ORL11 RL assay. As to conditions: Hepatitis C virus, 72 hrs. The data set is classed as cell-based. The protocol:
RSc and D7 cells were derived from the cell lines HuH-7 and Li23, respectively, were cultured as described previously, [29]. HuH-7-derived OR6 [13], AH1R [30], and 1B-4R [Ikeda et al., submitted] cells harboring genome-length HCV-RNA and HuH-7-derived polyclonal sOR [31], and RSc-JRN/35B [Ikeda et al., submitted] cells harboring an HCV subgenomic replicon were cultured with medium in the presence of G418 (0.3 mg/ml; Geneticin, Invitrogen, Carlsbad, CA) as described previously. Li23-derived ORL8 [20], ORL11 [20], 1B-4RL [Ikeda et al., submitted], and KAH5RL [Ikeda et al., submitted] cells harboring genome-length HCV-RNA were maintained with medium in the presence of G418 (0.3 mg/ml) as described previously. Li23-derived polyclonal sORL8 and sORL11 cells harboring an HCV replicon, which were established by the transfection of ORN/3-5B/QR,KE,SR RNA into the cured OL8 and OL11 cells, respectively, were also cultured with medium in the presence of G418 (0.3 mg/ml) as described previously. Cured cells, from which the HCV-RNA had been eliminated by IFN treatment, were also maintained with medium in the absence of G418 as described previously. […] Therefore, when HCV-RNA is excluded from the cells or when its level is decreased, the cells are killed in the presence of G418. […]
(§2) The SI value of each reagent was determined by dividing the CC50 value by the EC50 value.

The subject of data set [3] is HCV subgenomic replicon RNA (O strain) replication in HuH-7-derived polyclonal sOR cells. In words: sOR RL assay. As to conditions: HuH-7, subgenomic replicon. The data set is classed as cell-based, hepatitis C virus. How it is done: RSc and D7 cells were derived from the cell lines HuH-7 and Li23, respectively, were cultured as described previously, [29]. HuH-7-derived OR6 [13], AH1R [30], and 1B-4R [Ikeda et al., submitted] cells harboring genome-length HCV-RNA and HuH-7-derived polyclonal sOR [31], and RSc-JRN/35B [Ikeda et al., submitted] cells harboring an HCV subgenomic replicon were cultured with medium in the presence of G418 (0.3 mg/ml; Geneticin, Invitrogen, Carlsbad, CA) as described previously. Li23-derived ORL8 [20], ORL11 [20], 1B-4RL [Ikeda et al., submitted], and KAH5RL [Ikeda et al., submitted] cells harboring genome-length HCV-RNA were maintained with medium in the presence of G418 (0.3 mg/ml) as described previously. Li23-derived polyclonal sORL8 and sORL11 cells harboring an HCV replicon, which were established by the transfection of ORN/3-5B/QR,KE,SR RNA into the cured OL8 and OL11 cells, respectively, were also cultured with medium in the presence of G418 (0.3 mg/ml) as described previously. Cured cells, from which the HCV-RNA had been eliminated by IFN treatment, were also maintained with medium in the absence of G418 as described previously. […] Therefore, when HCV-RNA is excluded from the cells or when its level is decreased, the cells are killed in the presence of G418.
(§3) RL assay was performed as described previously, [24]. Briefly, the cells were plated onto 24-well plates (2×10^4 cells per well) in triplicate and then treated with each reagent at several concentrations for 72 hrs. After treatment, the cells were subjected to luciferase assay using the RL assay system (Promega, Madison, WI). The experiments were performed at least in triplicate. From the assay results, the 50% effective concentration (EC50) of each reagent was determined.
as §2
For orientation: A replicon is a self-replicating genome or part of one, used to study replication in cells.

The test system of data set [4] is HCV-RNA replication in ORL8 cells. In words: Combination with IFN-α and/or RBV, ORL8 RL assay. The data set is classed as cell-based, hepatitis C virus. As to conditions: 72 hrs; for anti-HCV effect in combination with IFN-α: IFN-α more than 4 IU/ml. An excerpt:
(§4) We examined the anti-HCV activity of N-89 or N-251 in combination with IFN-α using OR6 and ORL8 assay systems. […] However, such an effect was not clear in the OR6 assay (Fig. S4A). […] Therefore, we next examined the combination effect of RBV in the same way as IFN-α using an ORL8 assay. […] Therefore, we further examined the effect of N89 or N-251 in combination with both IFN-α and RBV using an ORL8 assay.
Figure 6 Synergistic anti-HCV effects of N-89 or N-251 in combination with IFN-α and/or RBV on HCV-RNA replication in ORL8 cells. […] ORL8 cells were treated with N-89 (upper panel) or N-251 (lower panel) in combination with IFN-α (A), RBV (B), or IFN-α and RBV (C) for 72 hrs and subjected to RL assay.

The test system of data set [5] is HCV-RNA replication in OR6 cells. In words: Combination with IFN-α and/or RBV, OR6 RL assay. The data set is classed as cell-based, hepatitis C virus. As to conditions: 72 hrs.
From the text: as §4
Supplementary file pone.0072519.s004.tif: Figure S4 Anti-HCV effects of N-89 or N-251 in combination with IFN-α and/or RBV on HCV-RNA replication in OR6 cells. […] (A) Effect of N-89 or N-251 in combination with IFN-α on OR6 assay. OR6 cells were treated with N-89 (upper panel) or N-251 (lower panel) in combination with IFN-α for 72 hrs and subjected to RL assay. (B) Effect of N-89 or N-251 in combination with RBV on OR6 assay. OR6 cells were treated with N-89 (upper panel) or N-251 (lower panel) in combination with RBV for 72 hrs and subjected to RL assay. (C) Effect of N-89 or N-251 in combination with IFN-α and RBV on OR6 assay. OR6 cells were treated with N-89 (upper panel) or N-251 (lower panel) in combination with IFN-α and RBV for 72 hrs and subjected to RL assay. (TIF) Click here for additional data file.

The test system of data set [6] is genome-length HCV-RNA (O strain of genotype 1b) replication in Li23-derived ORL8 cells. In words: ORL8 RL assay. The data set is classed as cell-based, hepatitis C virus. The following applies: for EC50: Hepatitis C virus, Li23, HCV strain O, 72 hrs, RL assay. How it is done:
RSc and D7 cells were derived from the cell lines HuH-7 and Li23, respectively, were cultured as described previously, [29]. HuH-7-derived OR6 [13], AH1R [30], and 1B-4R [Ikeda et al., submitted] cells harboring genome-length HCV-RNA and HuH-7-derived polyclonal sOR [31], and RSc-JRN/35B [Ikeda et al., submitted] cells harboring an HCV subgenomic replicon were cultured with medium in the presence of G418 (0.3 mg/ml; Geneticin, Invitrogen, Carlsbad, CA) as described previously. Li23-derived ORL8 [20], ORL11 [20], 1B-4RL [Ikeda et al., submitted], and KAH5RL [Ikeda et al., submitted] cells harboring genome-length HCV-RNA were maintained with medium in the presence of G418 (0.3 mg/ml) as described previously. Li23-derived polyclonal sORL8 and sORL11 cells harboring an HCV replicon, which were established by the transfection of ORN/3-5B/QR,KE,SR RNA into the cured OL8 and OL11 cells, respectively, were also cultured with medium in the presence of G418 (0.3 mg/ml) as described previously. […] Therefore, when HCV-RNA is excluded from the cells or when its level is decreased, the cells are killed in the presence of G418.
as §3, §2

Data set [7] in a line: WST-1 cell proliferation assay, OR6 cells. The data set is classed as cell-based. As to conditions: human. The protocol:
as §1

What is called CC50 is the concentration at which the toxic effect on the cells reaches its halfway point. Lower therefore signals harm at low concentration. As a reminder, the EC50 is the midpoint of the concentration-response curve. Take `C1CCCCCC2(CCCCC1)OOCCCOO2` [N-89, 1,2,6,7-Tetraoxaspiro[7.11]nonadecane]: the cytotoxic concentration (CC50) at 72 h in data set [1] worked out at 2.3 µM; in data set [7] it was 9 µM. For the same compound, the half-maximal effective concentration (EC50) in data set [2] is 0.045 µM; in data set [3] (Hepatitis C virus, Huh-7, 72 h) it was under 1 µM; in data set [3] (72 hrs), 0.58 µM; in data set [6] (ORL8 assay), 0.089 µM. Moreover, the “anti-HCV effect in combination with RBV” value in data set [4] was “synergistic effect”; in data set [5], “additive anti-HCV effect”. In addition, the “anti-HCV effect in combination with both IFN-α and RBV” value in data set [4] was “synergistically enhanced”. Also, the figures for the “anti-HCV effect in combination with IFN-α” value in data set [4] and in data set [5] were “synergistic effect” and “not clear”, respectively. Further, the “anti-HCV activity (suppression)” value in data set [6] (1 µM in ORL8 cells, without a decrease in cell viability) is listed as over 99%. Moreover, the EC99 value in data set [6] (ORL8 assay) is given as 1 µM.
For `OCCCCCCC1COOC2(CCCCCCCCCCC2)OOC1` [N-251, 6-(1,2,6,7-tetraoxaspiro[7.11]nonadec-4-yl)hexan-1-ol], the CC50 at 72 h in data set [1] was 1.3 µM; in data set [7], 3 µM. Moreover, the half-maximal effective concentration (EC50) is 0.059 µM in data set [2]; under 1 µM in data set [3] (Hepatitis C virus, Huh-7, 72 h); 0.69 µM in data set [3] (72 hrs); 0.1 µM in data set [6] (ORL8 assay). The figures for the “anti-HCV effect in combination with RBV” value in data set [4] and in data set [5] were “synergistic effect” and “additive anti-HCV effect”, respectively. For the same compound, the “anti-HCV effect in combination with both IFN-α and RBV” value in data set [4] was “synergistically enhanced”. The “anti-HCV effect in combination with IFN-α” value in data set [4] was “synergistic effect”; in data set [5], “not clear”.
